Literature values, collected in patent publication US20040229940A1, “Analeptic and antidepressant combinations” (Cephalon Inc, priority 2003, published 2004).

Columns and labels:
rats = rats (Touret et al., 1995; Edgar and Seidel, 1997)
cats = cats (Lin et al., 1992)
canines = canines (Shelton et al., 1995)
non-human primates = non-human primates (Hernant et al, 1991)
[1] = test system: English bulldog sleep disordered breathing model; details: sleep apnea model, English bulldog (Panckeri et al, 1996)
narcoleptic canine = details: narcolepsy model, narcoleptic canine (Shelton et al, 1995)
[2] = test system: major depressive disorder; details: at 6 weeks

Row | SMILES | wakefulness (rats) | wakefulness (cats) | wakefulness (canines) | wakefulness (non-human primates) | wakefulness [1] | wakefulness (narcoleptic canine) | response [2]
1 | NC(=O)C[S+]([O-])C(c1ccccc1)c1ccccc1 (stereo not shown) [Modafinil, 2-(benzhydrylsulfinyl) acetamide] | promotes wakefulness | promotes wakefulness | promotes wakefulness | promotes wakefulness | promotes wakefulness | promotes wakefulness | –
2 | CNCCC(Oc1ccc(C(F)(F)F)cc1)c1ccccc1 (stereo not shown) [fluoxetine] | – | – | – | – | – | – | about 50%
